Data on 19 compounds can be found in US9663511B2, “Sphingosine 1-phosphate receptor antagonists” (ARROYO BIOSCIENCES, LLC, priority 2012, dated 2017).

What is called IC50 is the concentration at which inhibition is half-maximal. One may read the microsomal CLint as a measure of how fast metabolising enzymes remove a compound, apart from limits set by blood flow. In general, half-life refers to how long it takes for the measured level to halve. Low readings indicate rapid decline, high ones slow decline.

One series deals with S1P2 receptor (Homo sapiens (Human), UniProt O95136). Briefly: Antagonist assay (FLIPR TETRA, inhibition of reference agonist EC80) on S1P2. The following applies: tested as the citrate salt. In kind it is cell-based. The method, then: (§1) Antagonist percentage inhibition determinations were obtained by assaying sample compounds and referencing the control (EC80) wells for each profiled (GPCR) which evaluated binding to S1P2 and S1P5 receptors. The samples were run using a single addition assay protocol. The protocol design is as follows.
Sequence of S1P2 receptor (O95136 whole entry): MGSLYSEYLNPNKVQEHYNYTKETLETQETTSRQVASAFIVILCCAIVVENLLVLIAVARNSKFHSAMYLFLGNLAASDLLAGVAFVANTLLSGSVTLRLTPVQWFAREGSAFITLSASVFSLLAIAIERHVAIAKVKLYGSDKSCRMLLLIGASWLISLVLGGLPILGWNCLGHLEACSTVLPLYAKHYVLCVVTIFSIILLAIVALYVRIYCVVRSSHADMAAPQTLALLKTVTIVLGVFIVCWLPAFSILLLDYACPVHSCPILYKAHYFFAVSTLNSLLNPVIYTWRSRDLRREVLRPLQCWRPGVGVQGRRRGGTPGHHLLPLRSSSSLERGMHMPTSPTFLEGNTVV
(§2) Unless specified otherwise, the sample compounds were diluted in 100% anhydrous DMSO including all dilutions. The compounds were tested as the citrate salt (1 equivalent per molecule). If the sample compound is provided in a different solvent all master stock dilutions are performed in the specified solvent. All control wells contained identical solvent final concentrations as the sample compound wells.
(§3) The sample compounds were transferred from a master stock solution into a daughter plate that was used in the assay. Each sample compound was diluted into an assay buffer (1×HBSS with 20 mM HEPES, 2.5 mM Probenecid, and 0.4% Free Fatty Acid BSA) at an appropriate concentration to obtain final specified concentrations.
(§4) Using the EC80 values that were determined real-time, stimulated all pre-incubated sample compounds and reference antagonists (if applicable) were compared with the EC80 values of reference agonist. These were read for 180 seconds using the FLIPR^TETRA (This assay added reference agonist to respective wells-then fluorescences measurements were collected to calculate IC50 values). All plates were subjected to appropriate baseline corrections. Once baseline corrections were processed, maximum fluorescence values were exported and data manipulated to calculate percentage activation, percentage inhibition and Z′.

Another series addresses S1P5 receptor (Homo sapiens (Human), UniProt Q9H228). Briefly: Antagonist assay (FLIPR TETRA, inhibition of reference agonist EC80) on S1P5. In kind it is cell-based. Conditions: tested as the citrate salt. The method, then: as §1, §2, §3, §4
Series [1] in a line: In vitro plasma protein binding. The following applies: for mean fraction bound (%): mouse plasma, test concentration 5 nM. In kind it is in vitro ADME, mouse.
Series [2] is described as follows: Microsomal intrinsic clearance. Conditions: for microsomal CLint at 1 μM / half-life at 1 μM: mouse, liver microsomes, mouse microsomes, test conc. 1 μM. (In general: Microsomes from liver hold many membrane-bound enzymes, among them those of drug oxidation.)

Sequence of S1P5 receptor (Q9H228 whole entry): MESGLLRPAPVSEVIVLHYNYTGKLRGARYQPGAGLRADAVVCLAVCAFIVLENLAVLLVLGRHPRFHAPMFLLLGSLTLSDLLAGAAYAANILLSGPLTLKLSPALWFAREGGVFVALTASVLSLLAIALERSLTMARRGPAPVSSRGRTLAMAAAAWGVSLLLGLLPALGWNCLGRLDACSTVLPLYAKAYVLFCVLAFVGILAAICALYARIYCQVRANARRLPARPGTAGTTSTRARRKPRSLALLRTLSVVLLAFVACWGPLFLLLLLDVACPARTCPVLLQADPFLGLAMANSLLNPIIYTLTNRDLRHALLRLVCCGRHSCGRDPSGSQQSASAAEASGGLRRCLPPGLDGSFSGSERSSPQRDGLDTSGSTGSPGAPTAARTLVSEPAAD

With `Cc1nn(C)c2nc(N(CC(=O)O)NC(=O)Nc3cc(Cl)nc(Cl)c3)cc(C(C)C)c12` [Compound 2], the IC50 was determined as 11 nM at S1P2 receptor and 3.2 nM on S1P5 receptor. Also, in series [1] (compared with JTE013 and compound 1), the “plasma protein binding (in words)” value is given as “lower plasma protein binding”. In addition, the “mean fraction bound (%)” value in series [1] came out at 77.0%. In addition, the “stability in liver microsomes (in words)” value in series [2] (compared with JTE013) is recorded as “much more stable in liver microsomes”. Moreover, the results for the microsomal CLint at 1 μM in series [2] (NADPH-dependent Clint (microsomal intrinsic clearance)) and in series [2] (NADPH-free Clint (microsomal intrinsic clearance)) were 20 µL/min/mg and 9 µL/min/mg, respectively. The values for the half-life at 1 μM in series [2] (NADPH-dependent T1/2 (half-life)) and in series [2] (NADPH-free T1/2 (half-life)) were 1.88 h and over 3 h, respectively.

For the compound `C=CCn1nc(C)c2c(C(C)C)cc(N(CC(=O)O)NC(=O)Nc3cc(Cl)nc(Cl)c3)nc21` [Compound 3], the results for the IC50 on S1P2 receptor and at S1P5 receptor were 3000 nM and 5700 nM, respectively.

For `C=CCn1nc(C)c2c(C(F)(F)F)cc(NNC(=O)Nc3cc(Cl)nc(Cl)c3)nc21` [Compound 5], the IC50 on S1P2 receptor and on S1P5 receptor was over 10000 nM throughout.

Regarding `C=CCn1nc(C)c2c(C(C)C)cc(ONC(=O)Nc3cc(Cl)nc(Cl)c3)nc21` [Compound 6], the half-inhibitory concentration (IC50) was 52 nM on S1P2 receptor and 8.7 nM on S1P5 receptor.

Consider `Cc1nn(C)c2nc(N(CCO)NC(=O)Nc3cc(Cl)nc(Cl)c3)cc(C(C)C)c12` [Compound 9, N-(2,6-Dichloropyridin-4-yl)-2-(2-hydroxyethyl)-2-(4-isopropyl-1,3-dimethyl-1H-pyrazolo[3,4-b]pyridin-6-yl)hydrazine-1-carboxamide], for which the values for the IC50 on S1P2 receptor and on S1P5 receptor were 7 nM and 20.9 nM, respectively.

In the case of `C=CCn1nc(C)c2c(C(C)C)cc(NNC(=O)Nc3cc(Cl)nc(Cl)c3)nc21` [Compound 27], the results for the IC50 at S1P2 receptor and at S1P5 receptor were 75 nM and 165 nM, respectively.

`CC(C)c1cc(NNC(=O)Nc2cc(Cl)nc(Cl)c2)nc2c(CCCO)nn(C)c12` [Compound 33]: the IC50 at S1P2 receptor is 5 nM; at S1P5 receptor it was under 10 nM.

Turning to `CCOc1cc(NC(=O)NN(CCO)c2cc(C(C)C)c3c(C)nn(C)c3n2)cc(Cl)n1` [Compound 35], the IC50 worked out at 29 nM at S1P2 receptor and 13 nM on S1P5 receptor.

In the case of `CCCOc1cc(NC(=O)NN(CCO)c2cc(C(C)C)c3c(C)nn(C)c3n2)cc(Cl)n1` [Compound 36], the IC50 on S1P2 receptor came out at 10 nM; on S1P5 receptor it was 33 nM.

On to `COCCOc1cc(NC(=O)NN(CCO)c2cc(C(C)C)c3c(C)nn(C)c3n2)cc(Cl)n1` [Compound 37], for which the IC50 on S1P2 receptor was 160 nM; at S1P5 receptor, over 10000 nM.

On to `CCNc1cc(NC(=O)NN(CCO)c2cc(C(C)C)c3c(C)nn(C)c3n2)cc(Cl)n1` [Compound 38], for which the IC50 on S1P2 receptor is 4 nM; at S1P5 receptor it was 4.6 nM.

In the case of `CCN(C)c1cc(NC(=O)NN(CCO)c2cc(C(C)C)c3c(C)nn(C)c3n2)cc(Cl)n1` [Compound 39], the IC50 is 19 nM on S1P2 receptor and 40 nM on S1P5 receptor.

On to `Cc1nn(C)c2nc(N(CCO)NC(=O)Nc3cnc(Cl)c(Cl)c3)cc(C(C)C)c12` [Compound 40], for which the IC50 at S1P2 receptor was 300 nM; at S1P5 receptor, over 10000 nM.

Take `Cc1nn(C)c2nc(N(CCO)NC(=O)Nc3ccc(Cl)nc3Cl)cc(C(C)C)c12` [Compound 41]: the IC50 at S1P2 receptor and on S1P5 receptor was over 10000 nM each time.

For the compound `Cc1nn(C)c2nc(N(CCO)NC(=O)Nc3cc(Cl)c(Cl)s3)cc(C(C)C)c12` [Compound 42], the figures for the IC50 at S1P2 receptor and at S1P5 receptor were 64 nM and 290 nM, respectively.

`Cc1sc(NC(=O)NN(CCO)c2cc(C(C)C)c3c(C)nn(C)c3n2)cc1Cl` [Compound 43]: the values for the IC50 at S1P2 receptor and at S1P5 receptor were 360 nM and over 10000 nM, respectively.

Consider `Cc1nn(C)c2nc(N(CCO)NC(=O)Nc3cc(Cl)cc(C(F)(F)F)c3)cc(C(C)C)c12` [Compound 44], for which the IC50 at S1P2 receptor was over 120 nM; at S1P5 receptor it was 74 nM.

On to `Cc1nn(C)c2nc(N(CCO)NC(=O)Nc3cc(Cl)no3)cc(C(C)C)c12` [Compound 45], for which the IC50 on S1P2 receptor and at S1P5 receptor was over 10000 nM in each case.

In the case of `CC(C)NCC(O)COc1cccc2ccccc12` (centres unmarked) [Propanolol, reference compound], the “mean fraction bound (%)” value in series [1] is 87.4%.
